Reference: ChEMBL document CHEMBL5537185, “Discovery of the First-in-Class RORγ Covalent Inhibitors for Treatment of Castration-Resistant Prostate Cancer” (J Med Chem, 2024)

Experiments:
LNCaP = test: Antiproliferative activity against human LNCaP cells incubated for 4 days by CCK8 assay; conditions: 96 h
[1] = biological target: T1, Nuclear receptor ROR-gamma (Homo sapiens, UniProt P51449); test: Inhibition of Gal4-fused RORgamma LBD (unknown origin) expressed in HEK293T cells incubated for 48 hrs by luciferase based assay; type: cell-based
T1 sequence (P51449 whole entry): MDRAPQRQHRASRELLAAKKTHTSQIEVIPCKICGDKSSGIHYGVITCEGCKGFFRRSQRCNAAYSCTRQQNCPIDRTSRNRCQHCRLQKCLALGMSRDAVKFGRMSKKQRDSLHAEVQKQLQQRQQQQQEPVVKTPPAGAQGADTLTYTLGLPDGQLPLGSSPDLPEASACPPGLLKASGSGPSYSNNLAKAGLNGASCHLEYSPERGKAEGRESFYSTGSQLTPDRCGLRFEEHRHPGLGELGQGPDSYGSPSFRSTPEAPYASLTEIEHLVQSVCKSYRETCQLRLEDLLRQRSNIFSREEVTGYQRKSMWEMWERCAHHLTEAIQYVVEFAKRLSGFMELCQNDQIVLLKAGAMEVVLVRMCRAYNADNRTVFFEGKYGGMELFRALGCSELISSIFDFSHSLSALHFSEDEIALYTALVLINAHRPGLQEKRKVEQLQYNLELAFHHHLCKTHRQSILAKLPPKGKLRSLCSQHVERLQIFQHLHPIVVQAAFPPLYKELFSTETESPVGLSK

[2] = Metabolic stability in mouse liver microsomes assessed as half life at 0.1 uM preincubated for 10 mins followed by NADPH addition and measured upto 60 mins by LC-MS/MS analysis; type: ADME, Microsome; conditions: time < 70 min
LNCaP C4-2B = test: Antiproliferative activity against human LNCaP C4-2B cells incubated for 4 days by CCK8 assay; conditions: 96 h
CWR22R = test: Antiproliferative activity against human 22Rv1 cells incubated for 4 days by CCK8 assay; conditions: 22Rv1, 96 h

IC50 (LNCaP) [µM]	IC50 [1] [µM]	half-life at 0.1 µM [2] [min]	IC50 (LNCaP C4-2B) [µM]	Compound	IC50 (CWR22R) [µM]
0.53	1.1	8.17	0.73	C=CC(=O)Nc1ccccc1-c1ccc(NC(=O)Cc2ccc(S(=O)(=O)CC)cc2)cc1F	1.44
0.7	0.05	2.07	0.29	C=CC(=O)Nc1ccccc1-c1c(Cl)cc(NC(=O)Cc2ccc(S(=O)(=O)CC)cc2)cc1Cl	0.92
0.92		10	0.99	C=CC(=O)Nc1ccccc1-c1ccc(NC(=O)Cc2ccc(S(=O)(=O)CC)cc2)cc1C	2.25
